Consider 88 molecules from a melting point compilation (Tetko et al.; mined from patent text by program, amines drawn as free bases though some values may be those of a salt).

As a reminder, the melting point is the temperature, or range, at which the solid turns liquid.

For `Fc1ccc(C=Cc2nc(CNc3ccc(CCCCn4ccnn4)cc3)co2)c(C(F)(F)F)c1`, the melting point was 109 to 111 °C.

As to `CS(=O)(=O)C1C(O)C(CO)OC1n1ccc(=O)[nH]c1=O` (stereo not drawn), the melting point was 227 to 228 °C.

The molecule `Cc1cccc2c1C(=O)C(=S)N2` showed a melting point of 265 °C.

As to `C=CCNc1c(C(N)=O)cnc2cn[nH]c12`, the melting point was 254 to 258 °C.

`COc1ccc(CC(NC(=O)CNC(=O)OCc2ccccc2)C(=O)NC2C(C(=O)O)OC(n3cnc4c(NC(=O)c5ccccc5)ncnc43)C2O)cc1` (stereo not drawn): the melting point is 78 to 84 °C.

For `O=C(c1ccccc1)c1ccc2nc3[nH]c(=O)[nH]c3cc2c1`, the melting point was more than 300 °C.

`O=C(CCCN1CCC(NC(=O)c2ccccc2)CC1)c1ccc(F)cc1` returned a melting point of 161 to 162 °C.

On to `CC(=O)c1cc(Cl)sc1S(=O)(=O)Nc1ccc(CCO)cc1`, for which the melting point lay in the range of 112 to 116 °C.

As for `O=C(O)c1cc(F)c(F)cc1NC(=O)c1cc(-c2ccc(Cl)cc2)oc1C(F)(F)F`, the melting point is 337 to 340 °C.

For `COc1cccnc1Br`, the melting point amounted to 34 °C.

In turn, `O=C1NC(=O)c2c1cc1ccc3c(c1c2-c1ccc(OCc2ccccc2)cc1)OCO3` came in with a melting point of 265 to 267 °C.

As for `CC(C)NCc1ccc(COc2cccc3c2CN(C2CCC(=O)NC2=O)C3=O)cc1` (stereo not drawn), the melting point lay in the range of 165 to 167 °C.

Take `CS(=O)(=O)c1ccc(-c2cnn(C3C4CC5CC(C4)CC3C5)c(=O)c2-c2ccc(F)cc2)cc1` (stereo not drawn): the melting point is 195 to 197 °C.

Take `CCOC(=O)c1cn(-c2ncns2)c2cc(F)c(F)cc2c1=O`: the melting point lay in the range of 149 to 152 °C.

`Cc1cc(Br)cc2ccc(Cl)nc12` gave a melting point of 114 to 116 °C.

As for `COc1ccc2c(c1)c(CN(O)C(=O)CCC(=O)O)c(C)n2C(=O)c1ccc(Cl)cc1`, the melting point is 134 to 136 °C.

Turning to `CC(C)CCC(O)C(C)C1CC=C2C3=C(CCC21C)C1(C)CCC(OC(=O)c2ccccc2)C(C)(C)C1CC3` (stereo not drawn), the melting point lay in the range of 142 to 143 °C.

Take `O=C1c2ccccc2COc2ccc(Br)cc21`: the melting point was in the range of 132 to 134 °C.

For `COC(=O)CC(C#N)(C(=O)OC)c1cccc2ccc(OC)cc12` (stereo not drawn), the melting point was in the range of 119 to 121 °C.

In the case of `O=C(Cc1c[nH]c2ccccc12)NC1N=C(c2ccccc2)c2ccccc2NC1=O` (racemic), the melting point is 264 to 265 °C.

The molecule `C#Cc1cc(C=Cc2cc(C(C)(C)C)cc(C(C)(C)C)c2)cc(C=Cc2cc(C(C)(C)C)cc(C(C)(C)C)c2)c1` showed a melting point of 156 to 157 °C.

`CCc1c(C(=O)c2cc(C)cc(C)c2)n(C/C=C/COC(C)=O)c(=O)[nH]c1=O` had a melting point of 152 to 153 °C.

`Cc1cc(F)c(N)cc1N` displayed a melting point of 112 °C.

For the molecule `O=C(O)C(Cc1ccccc1)Oc1ccc2cc(-c3cnc(-c4cn(Cc5ccccc5)c5ccccc45)o3)ccc2c1` (stereo not drawn), the melting point fell in the range of 125 to 127 °C.

Regarding `CCOC(=O)c1cnc2c(N)cccc2c1`, the melting point lay in the range of 94 to 96 °C.

In turn, `CN1CCC(OC(c2cccc(SCCNc3c(N)c(=O)c3=O)c2)c2nc3ccccc3[nH]2)CC1` (stereo not drawn) returned a melting point of 161 °C.

In turn, `O=C(/C=C\[C@H]1CC1(c1ccccc1)c1ccccc1)NCCCCc1cccnc1` registered a melting point of 115 to 116 °C.

The molecule `CN(C)S(=O)(=O)c1cc(-c2csc(=Nc3ccc4c(c3)OCO4)n2C)ccc1Cl` yielded a melting point of 171 to 173 °C.

`COC(=O)c1ccc(C(=O)N2CCN(c3ncccc3N)CC2)cc1` registered a melting point of 144 °C.

As for `O=S(=O)(c1cnn(-c2c(Cl)cc(C(F)(F)F)cc2Cl)c1Br)C(F)(F)F`, the melting point fell in the range of 90 to 91 °C.

`C[C@@H](CSC(=O)c1ccccc1)C(=O)N1C(=O)N(C)C[C@H]1C(=O)O` gave a melting point of 162 °C.

Molecule `Cc1ccc(S(=O)(=O)N2[C@H](CCCCc3nnnn3C)CC[C@@H]2c2ccc(F)cc2)cc1` (racemic) registered a melting point of 77 °C.

Consider `COc1cccc(-c2nc3n(n2)Cc2cc(OC)c(OC)cc2-3)c1`, for which the melting point was in the range of 186 to 187 °C.

In turn, `O=C1c2cccc3cccc(c23)C(=O)N1CCO` registered a melting point of 172 to 173 °C.

As to `CCOc1ccc(-c2nc(CCC(=O)c3ccccc3C(=O)OC)cs2)cc1OCC`, the melting point is 91.7 to 92.9 °C.

As to `COc1cccc(C23CCC(=O)C(C2)NC3=O)c1` (stereo not drawn), the melting point was 138 to 139 °C.

As for `CSc1cc(C(=O)c2cc(C(C)(C)C)c(O)c(C(C)(C)C)c2)cn1C`, the melting point lay within 173 to 175 °C.

`COc1ccc(C2CCS(=O)(=O)C2)cc1OC1CCCC1` (stereo not drawn) returned a melting point of 89 to 90 °C.

Turning to `CC(C)c1nc(C(=O)NC2CC2)c(C(=O)O)o1`, the melting point lay within 109 to 112 °C.

`CCOC(=O)c1ccc(-c2cccc(-c3ccc4c(c3)C(C)(C)CCC4(C)C)c2OCOC)cc1`: the melting point was found to be 75 °C.

`CCOC(=O)c1cn(C)c2cc(Cl)sc2c1=O` showed a melting point of 168 to 171 °C.

In turn, `O=C(O)c1ccc(Cl)c2c1OCCO2` displayed a melting point of 195 °C.

In turn, `Fc1cnc2[nH]ccc2c1` gave a melting point of 110 °C.

On to `CCOC(=O)c1[nH]c2cc(F)c(Cl)cc2c1Sc1cc(C)cc(C)c1`, for which the melting point lay in the range of 170 to 173 °C.

Molecule `O=C(c1ccc(Cl)cc1)c1ccc2nccc(C(=O)O)c2c1` returned a melting point of more than 260 °C.

For the molecule `CC(C)(C)C(NC(=O)c1ccc(Cl)cc1)NC(=NS(=O)(=O)c1ccccc1)Nc1cccnc1` (stereo not drawn), the melting point was 196 to 197 °C.

As to `CCCCc1ccc(N2CCN(C(=O)Nc3nc4ccccc4nc3OC)CC2)cc1`, the melting point was in the range of 124 to 126 °C.

In the case of `CCn1nnc2cc3c(cc2c1=O)OC1CCCN1C3=O` (stereo not drawn), the melting point fell in the range of 186 to 188 °C.

As to `CCC(C)CNC(=O)c1ccc2c(c1)N(C(C)CN(C)CC)c1ccccc1S2` (mixture of isomers), the melting point turned out to be 95 °C.

Regarding `OC(CCCl)COc1ccccc1` (stereo not drawn), the melting point lay within 52 to 54 °C.

With `Cc1cc(O)c(C2CCCCC2)cc1S(=O)c1cc(C2CCCCC2)c(O)cc1C`, the melting point lay in the range of 151 to 153 °C.

In the case of `N#Cc1cnc2ccccc2c1Nc1ccc(Cl)cc1Cl`, the melting point is 260 to 262 °C.

Take `CCOC(=O)C(=CN(C)C)C(=O)C(Cl)Cl`: the melting point is 71 to 72 °C.

Take `COc1ccc(C2(C(=O)Oc3ccc(C(=O)NO)cc3)CCCCC2)cc1`: the melting point is 127 to 129 °C.

Regarding `CCOC(=O)c1c(CCn2cncn2)nc2sc3c(c2c1-c1ccc(OC)c(OC)c1)CCN(C(=O)c1ccc(Cl)cc1)C3`, the melting point was 195 to 197 °C.

On to `COc1ccnc(CSCCN=C(NC#N)SC)c1`, for which the melting point lay within 91.5 to 92.5 °C.

`COc1ccc(Cn2nc(COC(C)(C)C(=O)O)c3ccccc32)cc1` registered a melting point of 169 to 171 °C.

For `CSc1cc(C(=O)O)cc(C(F)(F)F)c1`, the melting point was in the range of 135 to 140 °C.

Regarding `Cc1ccc(-c2ccc3c(c2)C=C(C(=O)Nc2ccc(CNc4cccnc4)cc2)CC3)cc1`, the melting point was in the range of 212 to 214 °C.

Molecule `CN1C2CCCC1CC(c1ccc(I)nn1)C2` (stereo not drawn) came in with a melting point of 163 to 166 °C.

In turn, `CC(=O)NC1CC(n2cc(C=CBr)c(=O)[nH]c2=O)OC1CBr` (stereo not drawn) had a melting point of 178 to 180 °C.

Take `CCCCc1nc2c(c(C)c(C)n3nnnc23)n1CC(C)(C)NC(=O)NC1CCCCC1`: the melting point is 194 to 197 °C.

For `CCOC(=O)CC(=O)c1cc(F)c(F)c(C)c1F`, the melting point was in the range of 38 to 39 °C.

`CCN(CC)C(=O)COC(=O)c1cccc(NC(=O)C(CS)Cc2ccccc2)c1` (stereo not drawn) yielded a melting point of 160 to 163 °C.

`O=C(Nc1ccc2[nH]cnc2c1)C(=O)N1CCC(Cc2ccc(F)cc2)CC1` gave a melting point of 104 to 110 °C.

Molecule `CC(C)(C)OC(=O)N1CCC(C(=O)c2nc3ccccc3s2)CC1` registered a melting point of 94 to 95 °C.

`Cc1cc(SCc2ccnc3oc(-c4ccc(C(F)(F)F)cc4)nc23)ccc1OCC(=O)O`: the melting point was 154 to 157 °C.

For `COc1cc(C=CCN(C)CCc2ccc(N=C(N)c3cccs3)cc2)cc(OC)c1O`, the melting point lay in the range of 153 to 154 °C.

Regarding `CCCCCCC(=N)NC(=S)Nc1cc(C(F)(F)F)ccc1Cl`, the melting point was in the range of 88 to 90 °C.

`C#C[C@H]1CC[C@H](C(=O)O)CC1` gave a melting point of 161 to 162 °C.

Regarding `CC1CC(C(=O)O)NC1=O` (stereo not drawn), the melting point lay within 169 to 170 °C.

`CCCOc1ccc(-c2c(C(=O)OC)c(C(=O)OC)c(O)c3cc(OC)c(OC)c(OC)c23)cc1OCCC` showed a melting point of 132 °C.

`Fc1ccccc1C1CCN(Cc2ccccc2)CCN1Cc1ccccc1` (stereo not drawn) gave a melting point of 82 to 83 °C.

`C=C1CCCN(Cc2ccc(OC)cc2)C1=O` displayed a melting point of 145 to 155 °C.

With `Nc1c(F)c(N2C[C@@H]3CCCN[C@@H]3C2)c(F)c2c1c(=O)c(C(=O)O)cn2[C@@H]1C[C@@H]1F`, the melting point is 145 to 149 °C.

In the case of `CC(C)OCC1(C(C)(F)F)c2cc(C#N)ccc2Nc2ncccc21` (stereo not drawn), the melting point lay within 134 to 135 °C.

Take `CC(C)c1nc(COC2=CCCCC2)n(C)c1Sc1cc(Cl)cc(Cl)c1`: the melting point is 69 to 71 °C.

Molecule `Cc1c(-c2ccc(C#N)cc2)n[nH]c1C(=O)O` showed a melting point of 260 °C.

Molecule `O=C(O)CC1CN(Cc2ccc(Cl)c(Cc3ccccc3)c2Cl)C(=O)N(c2ccc(Br)cc2)C1` (stereo not drawn) registered a melting point of 174 to 176 °C.

Molecule `COc1cc(C(=O)N(C2CCCC2)C2CCCC2)ccc1Cn1cccc2ncnc1-2` yielded a melting point of 223 to 224 °C.

The molecule `CN(Cc1cnc(Cl)s1)C(=N)N[N+](=O)[O-]` registered a melting point of 116 to 117 °C.

Take `COC(=O)COc1cc(C(F)(F)F)cc(C(F)(F)F)c1`: the melting point was 65 to 67 °C.

Turning to `CN(C)C(=S)Oc1ccc(CCCCN)cc1`, the melting point fell in the range of 89 to 93 °C.

In turn, `CC1Cc2cc3c(cc2C(c2ccc([N+](=O)[O-])cc2)=NN1C(=O)NCCCl)OCO3` (stereo not drawn) yielded a melting point of 222 to 223 °C.

For the molecule `O=C(CBr)c1cccc2nnsc12`, the melting point fell in the range of 155 to 157 °C.

On to `Cc1nc(NC(=O)N(C)C)nc(C)c1Cl`, for which the melting point lay within 127 to 129 °C.

Take `O=C(C1CCC1)N1C[C@@H](c2c[nH]c3ccccc23)[C@H](c2cn3c4c(cccc24)CCC3)C1`: the melting point lay in the range of 253 to 255 °C.

As to `CC(=O)N1CCC(=O)C(C(c2ccccc2)c2ccccc2)C1` (stereo not drawn), the melting point lay in the range of 133 to 136 °C.
